Patent US10919852B2, “Immunomodulator compounds” (CHEMOCENTRYX, INC., priority 2017, dated 2021)

molecular target: human PD-L1 / Human PD-1 (Homo sapiens (Human), UniProt Q9NZQ7); experiment: Enzyme-Linked Immunosorbent Assay (ELISA), PD-1/PD-L1 binding; details: plate-coated human PD-L1, biotinylated human PD-1
Summary of the method: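 Compound dilutions (1:5 series) competed with 0.3 μg/mL biotin-labelled human PD-1 for PD-L1 immobilised at […], for 1 h at 37 °C. Read-out was A450 after streptavidin-HRP and a 20 min TMB reaction, stopped with 2 N H2SO4.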

human PD-L1 / Human PD-1, sequence (Q9NZQ7 19-239): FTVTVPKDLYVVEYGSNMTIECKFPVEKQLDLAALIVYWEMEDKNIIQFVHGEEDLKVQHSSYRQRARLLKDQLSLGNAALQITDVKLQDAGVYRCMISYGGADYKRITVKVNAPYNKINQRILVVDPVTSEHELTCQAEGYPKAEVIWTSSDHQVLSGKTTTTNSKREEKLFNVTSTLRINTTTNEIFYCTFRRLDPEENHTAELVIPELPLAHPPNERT

IC50	SMILES
5 to 500 nM	Cc1c(OCCCN2CCC(F)CC2)cccc1-c1cccc2c1CC[C@@H]2Oc1cc(OCc2cc(C#N)cc(C#N)c2)c(CN[C@@H]2CCC(=O)NC2=O)cc1Cl
< 5 nM	CC1(F)CCN(CCCOc2cccc(-c3cccc4c3CC[C@@H]4Oc3cc(OCc4cncc(C#N)c4)c(CN[C@@H]4CCCC[C@@H]4O)cc3Cl)c2Cl)CC1
< 5 nM	CC1(F)CCN(CCCOc2cccc(-c3cccc4c3CC[C@@H]4Oc3cc(OCc4cncc(C#N)c4)c(CNC[C@@H]4CCC(=O)N4)cc3Cl)c2Cl)CC1
< 5 nM	N#Cc1cncc(COc2cc(O[C@H]3CCc4c(-c5cccc(OCCCN6CCC(F)CC6)c5Cl)cccc43)c(Cl)cc2CN[C@@H]2CCC[C@H]2O)c1
5 to 500 nM	Cc1c(OCCCN2CCC(O)CC2)cccc1-c1cccc2c1CC[C@@H]2Oc1cc(OCc2cncc(C#N)c2)c(CN[C@H](C(=O)OC(C)(C)C)[C@@H](C)O)cc1Cl
5 to 500 nM	CC1(F)CCN(CCCOc2cccc(-c3cccc4c3CC[C@@H]4Oc3cc(OCc4cc(C#N)cc(C#N)c4)c(CN[C@H]4CCC(=O)NC4)cc3Cl)c2Cl)CC1
< 5 nM	CC1(O)CCN(Cc2cc(Cl)c(O[C@H]3CCc4c(-c5cccc(OCCCN6CCC(F)CC6)c5Cl)cccc43)cc2OCc2cncc(C#N)c2)CC1
5 to 500 nM	N#Cc1cncc(COc2cc(O[C@H]3CCc4c(-c5cccc(OCCCN6CC7(CC(O)C7)C6)c5Cl)cccc43)c(Cl)cc2CN2CCCC3(C2)NC(=O)NC3=O)c1 (stereo partly shown)
5 to 500 nM	CCOc1cc(O[C@H]2CCc3c(-c4cccc(OCCCN5CCC5(C)C)c4C)cccc32)c(Cl)cc1CN1CC[C@@H](C(=O)O)C1
5 to 500 nM	CCOc1cc(O[C@H]2CCc3c(-c4cccc(OCCCN5CCC5(C)C)c4C)cccc32)c(Cl)cc1CNCCS(=O)(=O)O
5 to 500 nM	CCOc1cc(O[C@H]2CCc3c(-c4cccc(OCCCN5CCC(F)CC5)c4Cl)cccc32)c(Cl)cc1CN[C@@H]1CCC(=O)NC1
< 5 nM	Cc1c(OCCCN2CCC(O)CC2)cccc1-c1cccc2c1CC[C@@H]2Oc1cc(OCc2cncc(C#N)c2)c(CNC2(C(=O)O)CCC2)cc1Cl
5 to 500 nM	Cc1c(OCCCN2CCC(O)CC2)cccc1-c1cccc2c1CC[C@@H]2Oc1cc(OCc2cncc(C#N)c2)c(CNC(C)(CO)CO)cc1Cl
< 5 nM	C[C@@](CO)(NCc1cc(Cl)c(O[C@H]2CCc3c(-c4cccc(OCCCN5CC(O)C5)c4Cl)cc(F)cc32)cc1OCc1cncc(C#N)c1)C(=O)O
< 5 nM	Cc1c(OCCCN2CCC(C)(O)CC2)cccc1-c1cccc2c1CC[C@@H]2Oc1cc(OCc2cc(C#N)cc(C#N)c2)c(CNC[C@@H]2CCC(=O)N2)cc1Cl
< 5 nM	Cc1c(OCCCN2CC3(CCC3)C2)cccc1-c1cccc2c1CC[C@@H]2Oc1cc(OCc2cc(C#N)cc(C#N)c2)c(CNC[C@@H]2CCC(=O)N2)cc1Cl
< 5 nM	N#Cc1cncc(COc2cc(O[C@H]3CCc4c(-c5cccc(OCCCN6CCC(F)CC6)c5Cl)cccc43)c(Cl)cc2CN[C@@H]2CCC[C@@H]2O)c1
< 5 nM	Cc1c(OCCCN2CCC(F)CC2)cccc1-c1cccc2c1CC[C@@H]2Oc1cc(OCc2cncc(C(N)=O)c2)c(CN(C)CCC(=O)O)cc1Cl
< 5 nM	N#Cc1cncc(COc2cc(O[C@H]3CCc4c(-c5cccc(OCCCN6CCC(O)CC6)c5Cl)cccc43)c(Cl)cc2CNCC2CCC(=O)N2)c1 (stereo partly shown)
< 5 nM	CC(CO)(NCc1cc(Cl)c(O[C@H]2CCc3c(-c4cccc(OCCCN5CC(O)C5)c4Cl)cccc32)cc1OCc1cncc(Cl)c1)C(=O)O (stereo partly shown)
< 5 nM	CCOc1cc(O[C@H]2CCc3c(-c4cccc(OCCCN5CCC(F)CC5)c4C)cccc32)c(Cl)cc1CN[C@@H](CO)C(=O)O
5 to 500 nM	N#Cc1cncc(COc2cc(O[C@H]3CCc4c(-c5cccc(OCCC(N)=O)c5Cl)cccc43)c(Cl)cc2CN[C@@H]2CCCC[C@@H]2O)c1
5 to 500 nM	N#Cc1cc(C#N)cc(COc2cc(O[C@@H]3c4cccc(-c5cccc(OCCCN6CCC(F)CC6)c5Cl)c4C[C@H]3F)c(Cl)cc2CNC[C@H]2CCC(=O)N2)c1
< 5 nM	N#Cc1cncc(COc2cc(O[C@H]3CCc4c(-c5cccc(OCCCN6CC7(CC(O)C7)C6)c5Cl)cccc43)c(Cl)cc2CN[C@@H]2CCC[C@@H]2O)c1
< 5 nM	CCOc1cc(O[C@H]2CCc3c(-c4cccc(OCCCN5CC6(CC(O)C6)C5)c4C)cccc32)c(Cl)cc1CN[C@@H](CO)C(=O)O
5 to 500 nM	CCOc1cc(O[C@H]2CCc3c(-c4cccc(OCCCN5CCC5(C)C)c4C)cccc32)c(Cl)cc1CN1CC(CC)(C(=O)O)C1
< 5 nM	C[C@@](CO)(NCc1cc(Cl)c(O[C@H]2CCc3c(-c4cccc(OCCCN5CC(O)C5)c4Cl)cccc32)cc1OCc1cncc(C#N)c1)C(=O)O
< 5 nM	Cc1c(OCCCN2CCC(CO)CC2)cccc1-c1cccc2c1CC[C@@H]2Oc1cc(OCc2cncc(C#N)c2)c(CN[C@H](C(=O)O)[C@@H](C)O)cc1Cl
< 5 nM	Cc1c(OCCCN2CCC(O)CC2)cccc1-c1cccc2c1CC[C@@H]2Oc1cc(OCc2cncc(C#N)c2)c(CN2CCC(C)(O)CC2)cc1Cl

The next lines start with the compound.

SMILES	IC50
N#Cc1cncc(COc2cc(O[C@H]3CCc4c(-c5cccc(OCCCN6CCC(F)CC6)c5Cl)cccc43)c(Cl)cc2CN2CC[C@@H](F)C2)c1	< 5 nM
N#Cc1cncc(COc2cc(O[C@H]3CCc4c(-c5cccc(OCCCN6CC(O)C6)c5Cl)cccc43)c(Cl)cc2CN2CC3(CC(O)C3)C2)c1	< 5 nM
N#Cc1cncc(COc2cc(O[C@H]3CCc4c(-c5cccc(OCCCN6CC7(CC(F)C7)C6)c5Cl)cccc43)c(Cl)cc2CN[C@H]2CC[C@@H]2O)c1	< 5 nM
N#Cc1cncc(COc2cc(O[C@H]3CCc4c(-c5cccc(OCCCN6CC7(CC(F)C7)C6)c5Cl)cccc43)c(Cl)cc2CN[C@H]2CCC[C@@H]2O)c1	< 5 nM
Cc1c(OCCCN2CCC(O)CC2(C)C)cccc1-c1cccc2c1CC[C@@H]2Oc1cc(OCc2cc(C#N)cc(C#N)c2)c(CN[C@H]2CCC(=O)NC2)cc1Cl (stereo partly shown)	< 5 nM
N#Cc1cncc(COc2cc(O[C@H]3CCc4c(-c5cccc(OCCCN6CCC6)c5Cl)cccc43)c(Cl)cc2CN[C@@H]2CCCC[C@@H]2O)c1	< 5 nM
Cc1c(OCCCN2CC[C@@H](O)C2)cccc1-c1cccc2c1CC[C@@H]2Oc1cc(OCc2cncc(C#N)c2)c(CN[C@H](C(=O)O)[C@@H](C)O)cc1Cl	< 5 nM
CCOc1cc(O[C@@H]2c3cccc(-c4cccc(OCCCN5CCC(F)CC5)c4Cl)c3C[C@@H]2F)c(Cl)cc1CN[C@@H]1CCCC[C@@H]1O	5 to 500 nM
Cc1c(OCCCN2CC3(CC(O)C3)C2)cccc1-c1cccc2c1CC[C@@H]2Oc1cc(OCc2cncc(C#N)c2)c(CN[C@H](C(=O)O)[C@@H](C)O)cc1Cl	< 5 nM
N#Cc1cncc(COc2cc(O[C@H]3CCc4c(-c5cccc(OCCCN6CCC(F)CC6)c5C#N)cccc43)c(Cl)cc2CNCC2CCC(=O)N2)c1 (stereo partly shown)	5 to 500 nM
N#Cc1cncc(COc2cc(O[C@H]3CCc4c(-c5cccc(OCCCN6CCC(F)CC6)c5Cl)cccc43)c(Cl)cc2CN[C@@H]2CCCC[C@@H]2O)c1	< 5 nM
Cc1c(OCCCN2CCC(O)CC2)cccc1-c1cccc2c1CCC2Oc1cc(OCc2cc(C#N)cc(C#N)c2)c(CN[C@@H](CO)C(=O)O)cc1Cl (stereo partly shown)	< 5 nM
N#Cc1cncc(COc2cc(O[C@H]3CCc4c(-c5cccc(OCCCN6CC7(CC(O)C7)C6)c5Cl)cccc43)c(Cl)cc2CN[C@@H]2CCC[C@H]2O)c1	< 5 nM
CCOc1cc(O[C@H]2CCc3c(-c4cccc(OCCCN5CCC5(C)C)c4C)cccc32)c(Cl)cc1CN(C)CCC(=O)OC	5 to 500 nM
CN1CCC(COc2cccc(-c3cccc4c3CC[C@@H]4Oc3cc(OCc4cncc(C#N)c4)c(CN[C@H]4CCC(=O)NC4)cc3Cl)c2Cl)C1 (stereo partly shown)	5 to 500 nM
CCOc1cc(O[C@H]2CCc3c(-c4cccc(OCCCN5CCC5(C)C)c4C)cccc32)c(Cl)cc1CN1CC(C)(C#N)C1	5 to 500 nM

SMILES	IC50
CCOc1cc(O[C@H]2CCc3c(-c4cccc(OCCCN5C(C)CC5C)c4C)cccc32)c(Cl)cc1CNC[C@@H]1CCC(=O)N1 (stereo partly shown)	< 5 nM
CCOc1cc(O[C@H]2CCc3c(-c4cccc(OCCCN5CCC5(C)C)c4C)cccc32)c(Cl)cc1CNCC1CCC(=O)N1C (stereo partly shown)	5 to 500 nM
N#Cc1cncc(COc2cc(O[C@H]3CCc4c(-c5cccc(OCCCN6CC(F)(F)C6)c5Cl)cccc43)c(Cl)cc2CNC[C@@H]2CCC(=O)N2)c1	5 to 500 nM
CCOc1cc(O[C@H]2CCc3c(-c4cccc(OCCCN5CCC5(C)C)c4C)cccc32)c(Cl)cc1CN[C@H]1CCC(=O)NC1	5 to 500 nM
N#Cc1cncc(COc2cc(O[C@H]3CCc4c(-c5cccc(OCCCN6CC7(CC(O)C7)C6)c5Cl)cccc43)c(Cl)cc2CN[C@H]2CCC[C@H]2O)c1	< 5 nM
C[C@@H](O)[C@H](NCc1cc(Cl)c(O[C@H]2CCc3c(-c4cccc(OCCCN5CCC(O)CC5)c4Cl)cccc32)cc1OCc1cncc(C#N)c1)C(=O)O	< 5 nM
CCOc1cc(O[C@H]2CCc3c(-c4cccc(OCCCN(C)C(C)(C)C)c4C)cccc32)c(Cl)cc1CNC[C@@H]1CCC(=O)N1	< 5 nM
CCOc1cc(O[C@H]2CCc3c(-c4cccc(OCCCN5CC[C@@H](O)C5)c4C)cccc32)c(Cl)cc1CN[C@@H](CO)C(=O)OC(C)C	5 to 500 nM
N#Cc1cncc(COc2cc(O[C@H]3CCc4c(-c5cccc(OCCCN6CCC(F)CC6)c5Cl)cccc43)c(Cl)cc2CN[C@@H]2CCOC[C@H]2F)c1 [drawing 224]	5 to 500 nM
N#Cc1cncc(COc2cc(O[C@H]3CCc4c(-c5cccc(OCCCN6CCC(F)CC6)c5Cl)cccc43)c(Cl)cc2CN2CCNC(=O)C2)c1	5 to 500 nM
CCOc1cc(O[C@H]2CCc3c(-c4cccc(OCCCN5CC[C@@H](O)C5)c4C)cccc32)c(Cl)cc1CN1CCCC[C@H]1C(=O)O	5 to 500 nM
C[C@@](CO)(NCc1cc(Cl)c(O[C@H]2CCc3c(-c4cccc(OCCCN5CC(O)C5)c4Cl)cccc32)cc1-c1cncc(C#N)c1)C(=O)O	< 5 nM
Cc1c(OCCCN2CCC(F)CC2)cccc1-c1cccc2c1CC[C@@H]2Oc1cc(OCc2cc(C#N)cc(C#N)c2)c(CNC[C@@H]2CCC(=O)N2)cc1Cl	< 5 nM
CCOC(=O)CCN(C)Cc1cc(Cl)c(O[C@H]2CCc3c(-c4cccc(OCCCN5CCC5(C)C)c4C)cccc32)cc1OCC	5 to 500 nM
COc1cc(O[C@H]2CCc3c(-c4cccc(OCCCN5CCC(C)(F)CC5)c4C)cccc32)c(Cl)cc1CN[C@H]1CCC(=O)NC1	5 to 500 nM
Cc1c(OCCCN2CCC(O)CC2)cccc1-c1cccc2c1CCC2Oc1cc(OCc2cc(C#N)cc(C#N)c2)c(CN[C@@H]2CCCC[C@@H]2O)cc1Cl (stereo partly shown)	< 5 nM
